Data set [1] deals with tumor cell lines. Description: Cell growth inhibition assay (MTT), summary statements over several cell lines. The data set is classed as cell-based. The following applies: read-out: antiproliferative IC50. On the procedure: Cells were plated in 96-well plates (100 µL/well) at the following concentrations: 30,000 cells/mL (HepG2, U87 MG, T98G, C6, LNCaP, PC3, and HT-29 cells) or 15,000 cells/mL (HeLa and MCF-7 cells). Previous experiments were performed to choose the optimal cell concentration (70–80% confluence) and avoid the formation of cell aggregates. Cells were incubated in complete DMEM or RPMI 1640 medium (see above) at 37 °C and 5% CO2 atmosphere for 24 h to allow for cell attachment to the plate. Then, every compound was added (10 µL/well) to a final concentration of 10 µM. Non-treated cells were used as negative controls. The antiproliferative activity of compounds was measured 72 h after the treatments using the MTT reagent (3-[4,5-dimethylthiazol-2-yl]-2,5-diphenyltetrazolium bromide), (MTT Thiazolyl Blue Tetrazolium Bromide, Sigma-Aldrich, St. Louis, MO, USA) dissolved in PBS at 5 mg/mL. Compounds showing antiproliferative effects at 10 µM were selected to determine their IC50 value. For that purpose, compounds were used at different concentrations ranging from 10^−10 to 10^−2 M. Measurements were performed in triplicate, and each experiment was repeated three times. The IC50 value was determined for every compound using Origin software (OriginLab, Washington, USA). To study the sensitivity to MDR efflux pumps of compounds, the IC50 values were determined by following the same procedure but in the presence of verapamil (final concentration of 10 µM).

Data set [2] deals with HEK-293 cells. The data set can be described thus: Cell growth inhibition assay (MTT), non-tumorigenic cells. The data set is classed as cell-based, human. The following applies: Homo sapiens, HEK293, 72 h after drug exposure, non-tumorigenic cell line. The method in brief: (§1)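 MTT read-out of antiproliferative activity 72 h after compound addition to attached cells grown in DMEM with 10% FBS at 37 °C, 5% CO2. IC50 derived from concentration series spanning 10^−10 to 10^−2 M, measured in triplicate and repeated three times.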

For data set [3], the system named is GL261 cells. Description: Cell growth inhibition assay (MTT). The following applies: Mus musculus, GL261, 72 h after drug exposure. The format is cell-based, murine. The method in brief:
as §1

Data set [4] relates to HT-29 cells. The data set can be described thus: Cell growth inhibition (MTT) in the presence of 10 µM verapamil (sensitivity to MDR efflux pumps). The data set is classed as cell-based, human. The following applies: 10 µM verapamil (P-gp/MDR1 inhibitor).
The nature of data set [5]: Aqueous solubility, shake-flask method. The format is physicochemical. The following applies: pH 7.0 buffer, thermodynamic from solid, shaking flask, buffered media at pH 7.0, mean of three. The method in brief:
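Shake-flask: 5 mg compound in 500 µL pH 7.0 buffer stirred 72 h at room temperature, then filtered to remove insoluble material. Saturated filtrate quantified by UV absorbance at λmax against a per-compound calibration line; value is the mean of three independent measurements.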

Data set [6] concerns HeLa cells. The data set can be described thus: Cell growth inhibition assay (MTT). The format is cell-based, human. The following applies: Homo sapiens, HeLa, 72 h after drug exposure. The method in brief: (§2)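 Following overnight (24 h) attachment, cultures received serial compound concentrations from 10^−10 to 10^−2 M and were incubated 72 h before MTT viability measurement. Where efflux-pump sensitivity was tested, IC50 was redetermined with 10 µM verapamil present.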

Data set [7] relates to MCF7 cells. Description: Cell growth inhibition assay (MTT). The data set is classed as cell-based, human. The following applies: Homo sapiens, MCF7; MTT, 72 h after drug exposure. The method in brief: as §1
The subject of data set [8] is LNCaP cells. The data set can be described thus: Cell growth inhibition assay (MTT). The format is cell-based, human. The following applies: Homo sapiens, LNCaP, 72 h after drug exposure. The method in brief: as §1
Data set [9] has as its system PC-3 cells. The data set can be described thus: Cell growth inhibition assay (MTT). The following applies: Homo sapiens, PC-3, 72 h after drug exposure. The data set is classed as cell-based, human. The method in brief:
as §2

Data set [10] relates to T98G cells. Description: Cell growth inhibition assay (MTT). The data set is classed as cell-based, human. Particulars: Homo sapiens, T98G, 72 h after drug exposure. The method in brief:
as §2

Data set [11] has as its system U87MG cells. Description: Cell growth inhibition assay (MTT). The format is cell-based, human. The following applies: Homo sapiens, U-87 MG; MTT, 72 h after drug exposure. The method in brief:
as §1

For data set [12], the system named is HT-29 cells. Description: Cell growth inhibition assay (MTT). The data set is classed as cell-based, human. The following applies: Homo sapiens, HT-29, 72 h after drug exposure. The method in brief: as §2
Data set [13] has as its system HepG2 cells. Description: Cell growth inhibition assay (MTT). The format is cell-based, human. The following applies: Homo sapiens, HepG2, 72 h after drug exposure. The method in brief:
as §1

Data set [14] has as its system bovine brain tubulin. The data set can be described thus: Tubulin polymerization inhibition (turbidimetry). The format is biochemical. Particulars: concentration inhibiting 50% of microtubular protein polymerization in vitro; read-out: TPI IC50. The method in brief:
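Turbidimetric assay using calf-brain microtubular protein: polymerization started by a shift from 4 °C to 37 °C and followed by absorbance at 450 nm. Percent inhibition calculated against a ligand-free control; IC50 determined only for compounds giving >50% inhibition at 10 µM. Triplicates in two independent experiments using separate protein preparations.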

For data set [15] the following is noted: cited from earlier work.
Data set [16] concerns HeLa cells. Also noted: method as in PMID 25970265. The following applies: read-out: IC50 cell proliferation of HeLa cells; cited from earlier work.

Converted amounts (≈) assume the structure as drawn. Like-named read-outs stand apart in the source and are kept apart here.

This passage reports IC50, solubility and water solubility results from publication PMC10301603, “Potent and Selective Benzothiazole-Based Antimitotics with Improved Water Solubility: Design, Synthesis, and Evaluation as Novel Anticancer Agents” (Pharmaceutics, 2023).

Usually solubility stands for the dissolved amount per volume that the medium holds. Read a high solubility as much dissolved substance. As for `COc1ccc2nc(NCc3ccccn3)sc2c1` [Compound 1, 6-methoxy-N-(pyridin-2-ylmethyl)benzo[d]thiazol-2-amine], the IC50 in [1] (HeLa, HepG2, MCF7, and U87MG) was around 1000 nM; in [1] (the rest of the tumor cell lines (other than HeLa, HepG2, MCF7, U87MG)) it was 2000 to 3000 nM; in data set [2], above 10000 nM; in data set [3], 2170 nM; in data set [4] it was 3470 nM; in data set [6], 1780 nM. Also, the IC50 in [7] stood at 1530 nM; in data set [8], 1520 nM; in data set [9], 2110 nM; in data set [10], 2400 nM; in [11], 1610 nM; in data set [12] it was 3510 nM. Besides, the IC50 was 2400 nM in [13] and above 10000 nM in data set [14]. The concentration in solution in data set [5] (pH 7, aqueous buffer) (solubility at 72 h) was 48 µg/mL (≈ 177 µM).

Consider `COc1ccc(/C=C\c2cc(OC)c(OC)c(OC)c2)cc1O` [CA-4, combretastatin A-4, reference compound], for which, in [15], the water solubility is listed as 1 µg/mL (≈ 3.16 µM). In addition, the concentration in solution in data set [5] (pH 7, aqueous buffer) (solubility at 72 h) came to 1.1 µg/mL (≈ 3.48 µM). In addition, in data set [14], the IC50 was determined as […].

As to `Cc1cc2nc(/C=C/c3cccnc3)sc2cc1C` [MI181, reference compound], the IC50 in data set [16] is 17 nM; in [14], 4600 nM. In data set [5] (aqueous buffer), this molecule had a solubility at 72 h of 5.6 µg/mL (≈ 21 µM).
